The text below walks through data of patent US20240101540A1, “TARGETED PROTEIN DEGRADATION OF PARP14 FOR USE IN THERAPY” (Ribon Therapeutics, Inc., priority 2022, published 2024).

Each structure is given as a SMILES string. Entries after “also recorded” stand apart in the source; their conditions may differ. Some results are limits rather than exact numbers.

The target in experiment [1] is T1, catalytic domain of human PARP14 (residues 1611 to 1801) with NanoLuc tag (Homo sapiens, UniProt Q460N5).
T1 construct: expressed in transfected cells; host or cells: HEK-293T cells (ATCC), pcDNA3.1(-) vector
T1 sequence (Q460N5 1611-1801): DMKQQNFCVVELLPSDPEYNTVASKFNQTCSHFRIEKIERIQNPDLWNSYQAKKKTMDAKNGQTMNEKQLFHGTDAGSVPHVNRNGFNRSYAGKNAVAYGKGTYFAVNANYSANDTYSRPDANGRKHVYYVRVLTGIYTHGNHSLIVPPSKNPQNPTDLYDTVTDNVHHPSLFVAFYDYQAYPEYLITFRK
In words: NanoLuc assay for the degradation of PARP14 (NanoLuc-tagged PARP14 overexpressed in HEK-293T cells, 2 hours). Format: cell-based. The settings on record: Assay A (Example A): NanoLuc-tagged PARP14 degradation in HEK-293T cells, read-out: DC50.

Experiment [2] relates to Alternaria asthma mouse model. The experiment is described as follows: Alternaria asthma mouse model: cell counts and cytokines in BALF. Format: in vivo. The settings on record: Alternaria-challenged male Balb/c mice, 30, 100, 300, 1000 mg/kg once daily for 7 days by oral gavage, vs vehicle control (P<0.05), dose-dependent starting from 100 mg/kg. On the procedure: The effect of Compound 64 was studied in an Alternaria asthma mouse model. On days 1-5, male Balb/c mice under isoflurane anesthesia were challenged by instilling a solution of 5 μg (protein weight) Alternaria in 40 μL of PBS into each nostril. Sham-treated mice were administered 40 μL of PBS into each nostril. Compound 64 was administered two days prior to Alternaria challenge (defined day as day −1) and animals were treated with vehicle (0.5% methylcellulose+0.2% Tween 20) or Compound Y (30, 100, 300, 1000 mg/kg) once daily for 7 days (defined as day −1 to day 5) by oral gavage. Total and differential cell counts of the BALF fluid samples were measured using a XT-2000iV analyzer (Sysmex). Cytokine concentrations of BALF supernatant were measured in samples from all groups using ELISA kit (Biotechne, UK).
Statistical significance is calculated using one-way ANOVA followed by Dunnett's post-tests in which the treatment groups were compared to vehicle control (P<0.05).

A word on the DC50: it is the concentration giving 50% degradation. `O=C1CCC(Nc2ccc(N3CCN(CCN4CCC(COc5cc(F)c6c(=O)[nH]c(CSC7CCOCC7)nc6c5)CC4)CC3)c(F)c2)C(=O)N1` (racemic) [Example 64, 3-((3-fluoro-4-(4-(2-(4-(((5-fluoro-4-oxo-2-(((tetrahydro-2H-pyran-4-yl)thio)methyl)-3,4-dihydroquinazolin-7-yl)oxy)methyl)piperidin-1-yl)ethyl)piperazin-1-yl)phenyl)amino)piperidine-2,6-dione]: the DC50 in experiment [1] is < 100 nM. Moreover, in experiment [2] (ELISA of BALF supernatant), the “cytokine IL-4 in BALF” value was “significantly reduces”, the “cytokine IL-5 in BALF” value is recorded as “significantly reduces” and the “cytokine IL-33 in BALF” value is “significantly reduces”. Moreover, in experiment [2], the “eosinophils in BALF” value is given as “significantly reduces” and the “total cell counts in BALF (Alternaria-induced cell infiltration)” value is “significantly reduces; also recorded: dose-dependent reduction”.
